From US12077503B2, “Substituted cyclic amides and their use as herbicides” (FMC CORPORATION, priority 2015, dated 2024)

Experiments:
Format in all cases: in vivo
[1] = system: barnyardgrass (Echinochloa crus-galli); test: Test B flooded paddy test; settings: Flood, 250 g ai/ha
Procedure, shortened: (§1)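 Visual ratings (0 none to 100 complete control) are relative to untreated plants, taken 13–15 d after treatment in a greenhouse. Test material went straight into floodwater standing 3 cm above the soil, kept constant, on plants at the 2-leaf stage.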

[2] = system: ducksalad (Heteranthera limosa); test: Test B flooded paddy test; settings: Flood, 250 g ai/ha
Procedure, shortened: as §1

rice (Oryra sativa) = test: Test B flooded paddy test; settings: Flood, 250 g ai/ha
Procedure, shortened: as §1

[3] = system: sedge, umbrella (small-flower umbrella sedge, Cyperus difformis); test: Test B flooded paddy test; settings: 250 g ai/ha, Flood, 0 to 100 scale where 0 is no effect and 100 is complete control
Procedure, shortened: as §1

[4] = system: ryegrass, Italian (Italian ryegrass, Lolium multiflorum); test: Test A preemergence
Procedure, shortened: (§2)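 Preemergence soil spray on seeded pots or post-emergence spray on 1–2 leaf plants, in loam–sand blend. Greenhouse ~10 d. Visual rating 0–100 against untreated plants.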

[5] = system: barnyardgrass (Echinochloa crus-galli); test: Test A preemergence
Procedure, shortened: as §2

[6] = system: pigweed (Amaranthus retroflexus); test: Test A preemergence
[7] = system: ragweed (common ragweed, Ambrosia elatior); test: Test A preemergence
Procedure, shortened: as §2

[8] = system: giant foxtail (Setaria faberii); test: Test A preemergence
Procedure, shortened: as §2

Kochia (Kochia scoparia) [9] = test: Test A preemergence
Procedure, shortened: as §2

[10] = system: ryegrass, Italian (Italian ryegrass, Lolium multiflorum); test: Test A postemergence
Procedure, shortened: as §2

[11] = system: barnyardgrass (Echinochloa crus-galli); test: Test A postemergence; settings: for Plant response rating, Barnyardgrass: postemergence, 0 to 100 scale (0 no effect, 100 complete control)
Procedure, shortened: as §2

[12] = system: pigweed (Amaranthus retroflexus); test: Test A postemergence; settings: for Plant response rating, Pigweed: postemergence, 0 to 100 scale (0 no effect, 100 complete control)
Procedure, shortened: as §2

[13] = system: wheat (Triticum aestivum); test: Test A postemergence
Procedure, shortened: as §2

[14] = system: ragweed (common ragweed, Ambrosia elatior); test: Test A postemergence; settings: for Plant response rating, Ragweed: postemergence, 0 to 100 scale (0 no effect, 100 complete control)
Procedure, shortened: as §2

corn (Zea mays) = test: Test A postemergence
Procedure, shortened: as §2

[15] = system: blackgrass (Alopecurus myosuroides); test: Test A postemergence
Procedure, shortened: as §2

[16] = system: giant foxtail (Setaria faberii); test: Test A postemergence; settings: for Plant response rating, Foxtail, Giant: postemergence, 0 to 100 scale (0 no effect, 100 complete control)
Procedure, shortened: as §2

[17] = system: Galium (catchweed bedstraw, Galium aparine); test: Test A postemergence; settings: for Plant response rating, Galium: postemergence, 0 to 100 scale (0 no effect, 100 complete control)
Procedure, shortened: as §2

Kochia (Kochia scoparia) [18] = test: Test A postemergence
Procedure, shortened: as §2

[19] = 125 g ai/ha, Preemergence, visual injury rating after approximately 10 d
[20] = 125 g ai/ha, Postemergence, visual injury after approximately 10 d, 0 to 100 scale where 0 is no effect and 100 is complete control
[21] = 0 to 100 scale where 0 is no effect and 100 is complete control, 13 to 15 d
[22] = 125 g ai/ha, Preemergence, visual injury after approximately 10 d, 0 to 100 scale where 0 is no effect and 100 is complete control
[23] = 500 g ai/ha, preemergence, 0 to 100 scale, 0 = no effect, 100 = complete control
[24] = 125 g ai/ha, postemergence, visual rating after approx. 10 d, 0 to 100 scale (0 no effect, 100 complete control)
[25] = 500 g ai/ha, postemergence, visual injury, 0 to 100 scale (0 no effect, 100 complete control), approx. 10 d
[26] = 125 g ai/ha, visual rating after approx. 10 d
[27] = 500 g ai/ha, visual injury, approx. 10 d

Cc1ccc([C@H]2CN(C)C(=O)[C@@H]2C(=O)Nc2ccccc2[S+](C)[O-])cc1F (single isomer, unassigned) [Compound 987]
80%: pest or weed control at 125 g/ha ([11]; Echinochloa crus-galli, post-emergence, 240 h, 125 g ai/ha, Postemergence, visual injury after approximately 10 d, 0 to 100 scale where 0 is no effect and 100 is complete control, read-out: Plant response rating, Barnyardgrass)
0: Pigweed plant response rating (0 to 100 scale, 0 is no effect, 100 is complete control) [6, 19] | Ragweed plant response rating (0 to 100 scale, 0 is no effect, 100 is complete control) [7, 19] | Ragweed plant response rating ([7]; 500 g ai/ha, preemergence, visual injury rating about 10 d after treatment, 0 to 100 scale (0 no effect, 100 complete control)) | Kochia plant response rating (0 to 100 scale, 0 is no effect, 100 is complete control) (Kochia (Kochia scoparia) [9]; [19]) | Plant response rating, Ryegrass, Italian [10, 20] | Plant response rating, Wheat [13, 20] | Plant response rating, Corn (corn (Zea mays); [20]) | Plant response rating, Blackgrass [15, 20] | Plant response rating, Kochia (Kochia (Kochia scoparia) [18]; [20])
40%: pest or weed control at 500 g/ha ([4]; Lolium multiflorum, pre-emergence, 240 h, 500 g ai/ha, preemergence, visual injury rating about 10 d after treatment, 0 to 100 scale (0 no effect, 100 complete control), read-out: Ryegrass, Italian plant response rating) | pest or weed control at 125 g/ha ([17]; Galium, post-emergence, 240 h, 125 g ai/ha, Postemergence, visual injury after approximately 10 d, 0 to 100 scale where 0 is no effect and 100 is complete control, read-out: Plant response rating, Galium)
90%: pest or weed control at 250 g/ha ([1]; Echinochloa crus-galli, scale of 0 to 100 where 0 is no effect and 100 is complete control, read-out: Barnyardgrass plant response rating) | pest or weed control at 500 g/ha ([5]; Echinochloa crus-galli, pre-emergence, 240 h, 500 g ai/ha, preemergence, visual injury rating about 10 d after treatment, 0 to 100 scale (0 no effect, 100 complete control), read-out: Barnyardgrass plant response rating) | pest or weed control at 125 g/ha ([8]; Setaria faberi, pre-emergence, 240 h, 125 g ai/ha, Preemergence, visual injury rating after approximately 10 d, read-out: Foxtail, Giant plant response rating (0 to 100 scale, 0 is no effect, 100 is complete control)) | pest or weed control at 500 g/ha ([8]; Setaria faberi, pre-emergence, 240 h, 500 g ai/ha, preemergence, visual injury rating about 10 d after treatment, 0 to 100 scale (0 no effect, 100 complete control), read-out: Foxtail, Giant plant response rating)
60%: pest or weed control at 500 g/ha (Kochia (Kochia scoparia) [9]; Bassia scoparia, pre-emergence, 240 h, 500 g ai/ha, preemergence, visual injury rating about 10 d after treatment, 0 to 100 scale (0 no effect, 100 complete control), read-out: Kochia plant response rating) | pest or weed control at 125 g/ha ([16]; Setaria faberi, post-emergence, 240 h, 125 g ai/ha, Postemergence, visual injury after approximately 10 d, 0 to 100 scale where 0 is no effect and 100 is complete control, read-out: Plant response rating, Foxtail, Giant)
35%: pest or weed control at 250 g/ha (rice (Oryra sativa); Oryza sativa, scale of 0 to 100 where 0 is no effect and 100 is complete control, read-out: Rice plant response rating)
20%: pest or weed control at 500 g/ha ([6]; Amaranthus retroflexus, pre-emergence, 240 h, 500 g ai/ha, preemergence, visual injury rating about 10 d after treatment, 0 to 100 scale (0 no effect, 100 complete control), read-out: Pigweed plant response rating)
75: Ducksalad plant response rating ([2]; scale of 0 to 100 where 0 is no effect and 100 is complete control)
60: Barnyardgrass plant response rating (0 to 100 scale, 0 is no effect, 100 is complete control) [5, 19]
0%: pest or weed control at 250 g/ha ([3]; Cyperus difformis, read-out: Sedge, Umbrella plant response rating) | pest or weed control at 125 g/ha ([4]; Lolium multiflorum, pre-emergence, 240 h, 125 g ai/ha, Preemergence, visual injury rating after approximately 10 d, read-out: Ryegrass, Italian plant response rating (0 to 100 scale, 0 is no effect, 100 is complete control)) | pest or weed control at 125 g/ha ([12]; Amaranthus retroflexus, post-emergence, 240 h, 125 g ai/ha, Postemergence, visual injury after approximately 10 d, 0 to 100 scale where 0 is no effect and 100 is complete control, read-out: Plant response rating, Pigweed) | pest or weed control at 125 g/ha ([14]; Ambrosia artemisiifolia, post-emergence, 240 h, 125 g ai/ha, Postemergence, visual injury after approximately 10 d, 0 to 100 scale where 0 is no effect and 100 is complete control, read-out: Plant response rating, Ragweed)

C#Cc1cccc(C2CNC(=O)C2C(=O)Nc2cccc(F)c2F)c1 (racemic) [Compound 677]
80: Plant response rating, Barnyardgrass [11, 26]
0: Plant response rating, Rice (rice (Oryra sativa); [21]) | Plant response rating, Sedge, Umbrella ([3]; 13 to 15 d) | Plant response rating, Pigweed [6, 22] | Plant response rating, Pigweed [6, 23] | Plant response rating, Ragweed [7, 22] | Plant response rating, Ragweed [7, 23] | Plant response rating, Ryegrass, Italian [10, 24] | Plant response rating, Pigweed [12, 26] | Plant response rating, Wheat [13, 24] | Plant response rating, Ragweed [14, 26] | Plant response rating, Corn (corn (Zea mays); [24]) | Plant response rating, Blackgrass [15, 24] | Plant response rating, Galium [17, 26] | Plant response rating, Kochia (Kochia (Kochia scoparia) [18]; [24])
70: Plant response rating, Foxtail, Giant [16, 27]
20: Plant response rating, Ryegrass, Italian [4, 22] | Plant response rating, Kochia (Kochia (Kochia scoparia) [9]; [22]) | Plant response rating, Pigweed [12, 27] | Plant response rating, Wheat [13, 25] | Plant response rating, Blackgrass [15, 25] | Plant response rating, Foxtail, Giant [16, 26]
60: Plant response rating, Barnyardgrass [5, 22]
30: Plant response rating, Barnyardgrass [1, 21] | Plant response rating, Ryegrass, Italian [10, 25] | Plant response rating, Ragweed [14, 27]
40: Plant response rating, Ryegrass, Italian [4, 23] | Plant response rating, Foxtail, Giant [8, 22] | Plant response rating, Kochia (Kochia (Kochia scoparia) [9]; [23]) | Plant response rating, Corn (corn (Zea mays); [25]) | Plant response rating, Galium [17, 27] | Plant response rating, Kochia (Kochia (Kochia scoparia) [18]; [25])
90: Plant response rating, Barnyardgrass [5, 23] | Plant response rating, Foxtail, Giant [8, 23] | Plant response rating, Barnyardgrass [11, 27]
100: Plant response rating, Ducksalad [2, 21]
